Measurements as given in ChEMBL document CHEMBL1201862, “PubChem BioAssay data set” (2004).
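Compound exposure: 48 hours, 5 concentrations, 96-well plates. GI50 is the concentration that inhibits growth by half.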 The source made the active and inactive calls. Cut-off read from the data, not from the text of the source: active = GI50 up to about 1.1 µM and inactive = higher.

Experiments:
Test in all cases: NCI-60 cell line screen, 48 h
[1] = tested on: HCT-15
[2] = tested on: KM12
[3] = tested on: SW-620
[4] = tested on: BT-549
[5] = tested on: EKVX
[6] = tested on: MDA-MB-231
[7] = tested on: NCI-H226
[8] = tested on: CCRF-CEM
[9] = tested on: K562
[10] = tested on: RXF 393
[11] = tested on: CAKI-1
[12] = tested on: A498
[13] = tested on: DU-145
[14] = tested on: Hs-578T
[15] = tested on: COLO 205
[16] = tested on: LOX IMVI
[17] = tested on: T47D
[18] = tested on: SF-295
[19] = tested on: HCT-116
[20] = tested on: PC-3
[21] = tested on: NCI/ADR-RES
[22] = tested on: UACC-257
[23] = tested on: M14
[24] = tested on: SN12C
[25] = tested on: SF-539
[26] = tested on: SF-268
[27] = tested on: SNB-75
[28] = tested on: MCF7
[29] = tested on: MOLT-4
[30] = tested on: SK-OV-3
[31] = tested on: HT-29
[32] = tested on: OVCAR-5
[33] = tested on: UO-31
[34] = tested on: RPMI-8226
[35] = tested on: ACHN
[36] = tested on: NCI-H23
[37] = tested on: OVCAR-8
[38] = tested on: SK-MEL-5
[39] = tested on: Malme-3M
[40] = tested on: IGROV-1
[41] = tested on: UACC-62
[42] = tested on: SR
[43] = tested on: TK-10
[44] = tested on: NCI-H460
[45] = tested on: SNB-19
[46] = tested on: HOP-62
[47] = tested on: MDA-MB-435
[48] = tested on: U-251
[49] = tested on: SK-MEL-2
[50] = tested on: HL-60
[51] = tested on: MDA-N
[52] = tested on: 786-0
[53] = tested on: OVCAR-3
[54] = tested on: OVCAR-4
[55] = tested on: SK-MEL-28
[56] = tested on: A549
[57] = tested on: HCC 2998
[58] = tested on: NCI-H522

## COC(=O)c1cc2c3c(c(C(C)=O)c(OC)c2[nH]1)NCC3
[1]
  GI50: > 50 µM
[2]
  GI50: > 50 µM (inactive)
[3]
  GI50: > 50 µM (inactive)
[4]
  GI50: > 50 µM (inactive)
[5]
  GI50: > 50 µM (inactive)
[6]
  GI50: > 50 µM (inactive)
[7]
  GI50: 34.5 µM (inactive)
[8]
  GI50: > 50 µM (inactive)
[9]
  GI50: > 50 µM (inactive)
[10]
  GI50: > 50 µM (inactive)
[11]
  GI50: > 50 µM (inactive)
[12]
  GI50: > 50 µM (inactive)
[13]
  GI50: > 50 µM (inactive)
[14]
  GI50: > 50 µM (inactive)
[15]
  GI50: > 50 µM (inactive)
[16]
  GI50: > 50 µM (inactive)
[17]
  GI50: > 50 µM (inactive)
[18]
  GI50: > 50 µM (inactive)
[19]
  GI50: > 50 µM (inactive)
[20]
  GI50: > 50 µM (inactive)
[21]
  GI50: > 50 µM (inactive)
[22]
  GI50: > 50 µM (inactive)
[23]
  GI50: > 50 µM (inactive)
[24]
  GI50: > 50 µM (inactive)
[25]
  GI50: > 50 µM (inactive)
[26]
  GI50: > 50 µM (inactive)
[27]
  GI50: > 50 µM (inactive)
[28]
  GI50: > 50 µM (inactive)
[29]
  GI50: > 50 µM (inactive)
[30]
  GI50: > 50 µM (inactive)
[31]
  GI50: > 50 µM (inactive)
[32]
  GI50: > 50 µM (inactive)
[33]
  GI50: > 50 µM (inactive)
[34]
  GI50: > 50 µM (inactive)
[35]
  GI50: > 50 µM (inactive)
[36]
  GI50: > 50 µM (inactive)
[37]
  GI50: > 50 µM (inactive)
[38]
  GI50: > 50 µM (inactive)
[39]
  GI50: > 50 µM (inactive)
[40]
  GI50: > 50 µM (inactive)
[41]
  GI50: > 50 µM (inactive)
[42]
  GI50: > 50 µM (inactive)
[43]
  GI50: > 50 µM (inactive)
[44]
  GI50: > 50 µM (inactive)
[45]
  GI50: > 50 µM (inactive)
[46]
  GI50: > 50 µM (inactive)
[47]
  GI50: > 50 µM (inactive)
[48]
  GI50: > 50 µM (inactive)
[49]
  GI50: > 50 µM (inactive)
[50]
  GI50: > 50 µM (inactive)
[51]
  GI50: > 50 µM (inactive)
[52]
  GI50: > 50 µM (inactive)
[53]
  GI50: > 50 µM (inactive)

## C=CCn1c(=O)c2ccccc2[n+]2c(C)c(C(=O)OCC)sc12
[1]
  GI50: > 100 µM
[2]
  GI50: > 100 µM (inactive)
[3]
  GI50: > 100 µM (inactive)
[4]
  GI50: > 100 µM (inactive)
[5]
  GI50: > 100 µM (inactive)
[6]
  GI50: > 100 µM (inactive)
[7]
  GI50: > 100 µM (inactive)
[8]
  GI50: > 100 µM (inactive)
[9]
  GI50: > 100 µM (inactive)
[10]
  GI50: > 100 µM (inactive)
[11]
  GI50: > 100 µM (inactive)
[54]
  GI50: > 100 µM (inactive)
[13]
  GI50: > 100 µM (inactive)
[14]
  GI50: > 100 µM (inactive)
[15]
  GI50: > 100 µM (inactive)
[16]
  GI50: > 100 µM (inactive)
[55]
  GI50: > 100 µM (inactive)
[17]
  GI50: > 100 µM (inactive)
[18]
  GI50: 42.7 µM (inactive)
[19]
  GI50: > 100 µM (inactive)
[20]
  GI50: > 100 µM (inactive)
[21]
  GI50: > 100 µM (inactive)
[22]
  GI50: > 100 µM (inactive)
[23]
  GI50: > 100 µM (inactive)
[24]
  GI50: > 100 µM (inactive)
[25]
  GI50: > 100 µM (inactive)
[26]
  GI50: > 100 µM (inactive)
[28]
  GI50: > 100 µM (inactive)
[29]
  GI50: > 100 µM (inactive)
[56]
  GI50: > 100 µM (inactive)
[30]
  GI50: > 100 µM (inactive)
[31]
  GI50: > 100 µM (inactive)
[32]
  GI50: > 100 µM (inactive)
[33]
  GI50: > 100 µM (inactive)
[57]
  GI50: > 100 µM (inactive)
[34]
  GI50: > 100 µM (inactive)
[58]
  GI50: > 100 µM (inactive)
[35]
  GI50: > 100 µM (inactive)
[36]
  GI50: > 100 µM (inactive)
[37]
  GI50: > 100 µM (inactive)
[38]
  GI50: > 100 µM (inactive)
[40]
  GI50: > 100 µM (inactive)
[41]
  GI50: > 100 µM (inactive)
[42]
  GI50: > 100 µM (inactive)
[43]
  GI50: > 100 µM (inactive)
[44]
  GI50: > 100 µM (inactive)
[45]
  GI50: > 100 µM (inactive)
[46]
  GI50: 42.4 µM (inactive)
[47]
  GI50: > 100 µM (inactive)
[48]
  GI50: 90.2 µM (inactive)
[49]
  GI50: > 100 µM (inactive)
[50]
  GI50: > 100 µM (inactive)
[51]
  GI50: > 100 µM (inactive)
[52]
  GI50: > 100 µM (inactive)
[53]
  GI50: > 100 µM (inactive)
